Tests used:
17β-HSD2 = target: T1, 17β-HSD2 (Homo sapiens, UniProt P37059); test: Determination of metabolic stability: in-vitro 17β-HSD test, intestinal microsomes; format: in vitro ADME; conditions: LC/MS/MS; for metabolic stability in intestinal microsomes: 37° C., 0-60 minutes, 0.3 μmol in the test batch
T1 construct: Microsome solution: intestinal microsomes (In Vitro Technologies); protein content: 24 mg/ml; tissue In Vitro Technologies; host or cells: intestinal microsomes
T1 sequence (P37059 1-387): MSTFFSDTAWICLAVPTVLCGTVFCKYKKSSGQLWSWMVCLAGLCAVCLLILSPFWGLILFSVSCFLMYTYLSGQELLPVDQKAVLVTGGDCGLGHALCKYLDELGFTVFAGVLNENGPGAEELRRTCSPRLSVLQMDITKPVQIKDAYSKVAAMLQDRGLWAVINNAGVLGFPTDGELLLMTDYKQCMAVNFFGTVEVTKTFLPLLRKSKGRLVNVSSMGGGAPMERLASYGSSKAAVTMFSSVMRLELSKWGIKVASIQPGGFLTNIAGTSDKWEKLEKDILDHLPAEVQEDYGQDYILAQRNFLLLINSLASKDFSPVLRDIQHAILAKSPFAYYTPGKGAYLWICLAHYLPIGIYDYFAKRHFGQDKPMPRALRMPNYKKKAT
Text: Determination of metabolic stability: in-vitro 17β-HSD test
17β-HSD2 mediates the intestinal enzymatic dehydrogenization of an OH group in 17-position of the sterane skeleton into a ketone group.
For this test, the following materials are used:
Na-Phosphate buffer: 100 mmol of Na2HPO4×2H2O and 100 mmol of NaH2PO4×H2O
Test substance solution of
11β-Fluoro-7α-{5-[methyl(8,8,9,9,9-pentafluorononyl)amino]pentyl}-17α-methylestra-1,3,5(10)-triene-3,17β-diol (compound 1, as a representative of the compounds of general formula I) and
11β-Fluoro-7α-{5-[methyl(8,8,9,9,9-pentafluorononyl)amino]pentyl-estra-1,3,5(10)-triene-3,17β-diol (compound 2): […] in MeOH (0.3 μmol in the test batch).
Cofactor solution: 2 ml of glucose-6-phosphate (160 mmol)/MgCl2 (80 mmol) mixture is added to 400 μl of a glucose-6-phosphate-dehydrogenase solution, and then 15.6 mg of NADP and 13.4 mg of NAD are added.
Microsome solution: intestinal microsomes (In Vitro Technologies; protein content: 24 mg/ml; CYP450 content: 0.058 nmol/mg of protein)
In the water bath, it is thawed at 37° C. (˜60 seconds) and diluted with Na-phosphate buffer to a concentration of 5 mg/ml of protein.
In each case, 170 μl/well of the buffer and 5 μl/well of the test substance solutions are introduced into the corresponding wells, whereby double values are applied for each measuring time (0, 10, 20, 30, 45 and 60 minutes).
In each case, 250 μl of ice-cold MeOH is added to the 0-minute values. Then, 25 μl of microsome solution and 50 μl of cofactor solution are added immediately to all wells. The samples of the 0-minute values are stored without incubation at ˜−20° C. for about 24 hours. The other samples are incubated in each case for 10, 20, 30, 45 and 60 minutes at 37° C., and the dehydrogenation reaction is stopped after these times by the addition of 250 μl of ice-cold MeOH in each case. The samples are stored until measurement per LC/MS/MS at ˜−20° C., for about 24 hours and centrifuged at 3000 rpm before analysis, whereby the supernatant is measured.
(§1) The concentrations of the test substances measured per LC/MS/MS and the resulting 17 ketone product are reproduced in FIGS. 2a-2f.

uterus growth = test: Uterus growth test on infant rats (test on antiestrogenic action, antiuterotropic action); format: in vivo, rat; conditions: infant female rats, inhibition relative to EB control; for Antiuterotropic Action % Inhib. p.o.: 0.3 (mg/kg of body weight) p.o. once daily for three days with 0.5 μg estradiolbenzoate s.c.
[1] = Metabolic stability in liver microsomes; format: in vitro ADME; conditions: LC/MS/MS
Text: as §1

Row | metabolic stability in intestinal microsomes (17β-HSD2) | formation of the 17-ketone product of the 17βHSD-reaction (17β-HSD2) | Molecule | Antiuterotropic Action % Inhib. p.o. (uterus growth) | other results
1 | degraded | the corresponding 17-ketone is produced | CN(CCCCCCCC(F)(F)C(F)(F)F)CCCCC[C@@H]1Cc2cc(O)ccc2[C@@H]2[C@@H]1[C@@H]1CC[C@H](O)[C@@]1(C)C[C@@H]2F [compound 2, reference compound] |  | 
2 |  |  | 11β-Fluoro-7α-{5-[methyl(7,7,8,8,9,9,9-heptafluorononyl)amino]pentyl}-17α-methylestra-1,3,5(10)-triene-3,17β-diol [No. 8] | 94% | 
3 |  |  | CN(CCCCCCCC(F)(F)C(F)(F)F)CCCCC[C@@H]1Cc2cc(O)ccc2[C@@H]2[C@@H]1[C@@H]1CCC(=O)[C@@]1(C)C[C@@H]2F [compound 3, 11β-fluoro-7α-{5-[methyl(8,8,9,9,9-pentafluorononyl)amino]pentyl}-estra-1,3,5(10)-trien-3-ol-17-one] | 76% | 
4 |  |  | 11β-Fluoro-7α-{5-[methyl(7,7,8,8,9,9,10,10,10-nonafluorodecyl)amino]pentyl}-17α-methylestra-1,3,5 (10)-triene-3,17β-diol [No. 7] |  | Antiuterotropic Action % Inhib. s.c. (uterus growth; 0.03 (mg/kg of body weight) s.c., once daily for three days with 0.5 μg estradiolbenzoate s.c.): 59%
5 | metabolically stable | does not occur in any of the tissues | 11β-Fluoro-7α-{5-[methyl(8,8,9,9,9-pentafluorononyl)amino]pentyl}-17α-methylestra-1,3,5(10)-triene-3,17β-diol [compound 1] |  | formation of the 17-ketone product of the 17βHSD-reaction [1]: does not occur in any of the tissues; metabolic stability in liver microsomes [1]: not in liver microsomes
